In one series the target is T1, soybean lipoxygenase (Glycine max, UniProt P08170).
T1 construct: purchased Sigma Chemical, Co. (St. Louis)
T1 sequence (P08170 1-839): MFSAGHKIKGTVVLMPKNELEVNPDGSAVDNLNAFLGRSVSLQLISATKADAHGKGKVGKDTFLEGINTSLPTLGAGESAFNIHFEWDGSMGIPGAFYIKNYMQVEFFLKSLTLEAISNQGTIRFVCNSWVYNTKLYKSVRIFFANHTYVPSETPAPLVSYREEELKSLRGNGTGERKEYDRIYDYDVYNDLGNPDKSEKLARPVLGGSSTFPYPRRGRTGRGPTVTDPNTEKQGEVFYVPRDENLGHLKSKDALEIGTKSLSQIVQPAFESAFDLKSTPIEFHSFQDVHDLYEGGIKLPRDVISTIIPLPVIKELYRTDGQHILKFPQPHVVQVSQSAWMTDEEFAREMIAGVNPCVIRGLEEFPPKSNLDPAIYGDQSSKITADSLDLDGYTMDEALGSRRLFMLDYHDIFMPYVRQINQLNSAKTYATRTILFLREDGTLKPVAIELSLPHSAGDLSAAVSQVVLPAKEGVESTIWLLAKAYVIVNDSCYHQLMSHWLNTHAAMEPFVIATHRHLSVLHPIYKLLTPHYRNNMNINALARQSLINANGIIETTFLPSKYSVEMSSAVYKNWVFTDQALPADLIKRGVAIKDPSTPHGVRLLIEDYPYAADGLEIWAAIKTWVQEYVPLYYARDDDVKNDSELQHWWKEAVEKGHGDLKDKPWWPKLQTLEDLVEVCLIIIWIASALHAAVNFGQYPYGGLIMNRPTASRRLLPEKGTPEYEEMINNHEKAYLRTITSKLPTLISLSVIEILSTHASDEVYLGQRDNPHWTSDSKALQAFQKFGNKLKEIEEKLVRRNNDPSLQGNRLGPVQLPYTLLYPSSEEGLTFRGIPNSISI
Briefly: Soybean lipoxygenase inhibition in vitro. The format is biochemical. The following applies: sodium linoleate 0.1 mM, 234 nm, read-out: LOX IC50. The method, then: Many research groups have used readily obtainable soybean lipoxygenase, which is a homologue of mammalian lipoxygenase and well studied. Due to its availability and its well-characterised crystal structure, soybean LOX was selected to be used in this study.
In vitro study was evaluated as reported previously by our group. The tested compounds were incubated at room temperature with sodium linoleate (0.1 mM) and 0.2 mL of enzyme solution (1/9 × 104 w/v in saline). The method was based to the conversion of sodium linoleate to 13-hydroperoxylinoleic acid at 234 nm. […] In order to determine the IC50 values different concentrations were used.

A short description of series [1]: Reducing activity of the stable radical DPPH. The format is biochemical. The protocol: The substituted acids were monitored for the antioxidant activity by the use of the stable 2,2-diphenyl-1-picrylhydrazyl radical (DPPH) at concentration 50 µM and 100 µM after 20 and 60 min (Table 1). In this assay the DPPH radical is reduced by single electron transfer from the antioxidant. Strong antioxidants are the phenoxide anions from phenolic compounds like catechol and derivatives, such as nordihydroguaretic acid (NDGA), the reference compound. The compounds presented medium reducing abilities from 29–61%, due to steric reasons; small differences were found among the compounds with time and concentration. 4-Br-substituted-3 phenyl acetic acid derivatives (Series I) are equipotent to 4-OH-substituted-3 phenyl acetic acid derivatives (Series II). No differences were observed between 4i and 5i and 4ii and 5ii.
To a solution of DPPH in absolute ethanol an equal volume of the compounds dissolved in DMSO was added. The final concentrations of the measured solutions of the novel acids were 50 and 100 µM starting from a stock solution (10 mM) in DMSO. The absorbance was recorded at 517 nm, after 20 and 60 min at room temperature (Table 1).
A general note: Loss of DPPH colour is used to gauge radical scavenging.

Series [2] is described as follows: ABTS+• decolorization assay. The format is biochemical. The note with it: 1 min, 734 nm. The protocol: No role for lipophilicity was found. Oxidation of ABTS with potassium persulfate generates directly the ABTS radical cation (ABTS^+•) with no involvement of an intermediary radical, which is then reduced upon adding electron-donating antioxidants.
In order to produce the ABTS radical cation (ABTS^+•), ABTS stock solution in water (7 mM) was mixed with potassium persulfate (2.45 mM) and left in the dark at room temperature for 12–16 h before use. Our published experimental technique was used (Table 2). The results are recorded after 1 min of the mixing solutions at 734 nm. The results were compared to the appropriate standard inhibitor Trolox.

Series [3] in a line: Competition with DMSO for hydroxyl radicals (Fe3+/ascorbic acid system). The following applies: hydroxyl radical scavenging. The format is biochemical. The method, then: Competition of the novel substituted acids with DMSO for hydroxyl radicals was measured. Hydroxyl radicals were generated using the Fe^3+/ascorbic acid system and expressed as a percentage inhibition of formaldehyde production in the presence of each compound at 100 μM (Table 2). All the synthesized derivatives strongly scavenge hydroxyl radicals at 100 μM in comparison to the reference compound Trolox.
The hydroxyl radicals generated by the Fe^3+/ascorbic acid system, were detected by the determination of formaldehyde produced from the oxidation of DMSO (Table 2). Trolox was used as reference compound [17, 18, 28].

Series [4] is described as follows: Experimental lipophilicity as RM values by reversed phase TLC (RPTLC). The format is physicochemical. The note with it: methanol/water 77/23 with 0.1% acetic acid, 24 °C, average of at least 5 measurements. The source says:
Lipophilicity is a physicochemical property correlated with the biological activity. Lipophilicity influences ligand-target binding interactions, solubility, absorption, distribution, bioavailability, metabolism and elimination (ADME) and toxicological outcomes. The lipophilicity of the novel cinnamic acids was experimentally measured as RM values using a reverse phase thin layer chromatography (RPTLC) method. This is acknowledged as a reliable, fast and convenient approach for expressing lipophilicity (Table 1). RM relates to the thermodynamic Rf value in a logarithmic form. Bate-Smith and Westall firstly determined lipophilicity as RM values in 1950 [31]. The Br-substituted derivatives 1i–7i are more lipophilic than the OH-substituted ones 1ii–7ii which can be easily explained by their structural characteristics.
Reversed phase TLC (RPTLC) was performed on silica gel plates impregnated with 55% (v/v) liquid paraffin in light petroleum ether. The mobile phase was a methanol/water mixture (77/23, v/v) containing 0.1% of acetic acid. The plates were developed in closed chromatography tanks saturated with the mobile phase at 24 °C. Spots were detected under UV light. RM values were determined from the corresponding Rf values (from five individual measurements) using the equation RM = log[(1/Rf) − 1] [17, 18, 28].

A short description of series [5]: Non enzymatic assay of superoxide radical scavenging activity (PMS/NADH/NBT). In kind it is biochemical. The method, then: Superoxide radical is a main cause of oxidative stress, expressing its biological toxicity by the inactivation of iron-sulfur cluster containing enzymes. The superoxide anion radical (O2^−^•) is less toxic than the hydroxyl radical, but still being one of the most known toxic reactive oxygen species (ROS). In this assay the superoxide anion radicals were generated by a non-enzymatically assay and the compounds are tested at 100 μM final concentration (Table 2). Caffeic acid (CA) has been used as a reference compound. Compound 4ii presented the highest activity, followed by compound 3ii. We succeeded to derive a quantitative-structure activity relationship model for this activity in which the topological polar surface (TPAS) of the compounds seem to govern the superoxide anion scavenging activity:% Superoxide Anion Scavenging Activity (100 µM) = 0.019 (±0.007) TPSA + 0.813 (±0.358) n = 6, r = 0.962, r^2 = 0.926, q^2 = 0.694, s = 0.122, Q = 7.885, F1,6 = 3.701, α = 0.1 clog P vs. TPSA 0.
The superoxide radicals are generated by mixing N-methylphenazonium methyl sulfate (PMS), NADH and air–oxygen and determined by the nitroblue tetrazolium method and measured at 560 nm (Table 2). Caffeic acid was used as reference compound [17, 18, 28].

Series [6] can be described thus: Inhibition of linoleic acid peroxidation (AAPH). In kind it is biochemical. The following applies: anti-lipid peroxidation. The source says: We also used water-soluble 2,2′-[…](2-amidinopropane) hydrochloride (AAPH) for the generation of free radicals. AAPH has been extensively used as a clean and controllable source of thermally produced alkylperoxyl free radicals. The peroxyl radicals produced by the action of AAPH show total similarity to cellular activities such as lipid peroxidation. […] It seems that the presence of 3,5-di-tert-butyl-group greatly enhances protection against lipid peroxidation (6i/ii and 7i/ii followed by 3ii and 5ii). The lipid peroxidation inhibitory activity seems to be concentration dependent.
2,2’-Azobis(2-amidinopropane) dihydrochloride (AAPH) was used as a free radical initiator to start the oxidation reaction. The method was based on the production of conjugated diene hydroperoxide by oxidation of linoleic acid at 234 nm expressed as an increased absorption. Trolox was used as reference compound (93%) (Table 2).

Molecules are shown by their SMILES.

As for `O=C(O)C(=CC(Br)=Cc1ccccc1)c1ccc(O)cc1` [Compound 4ii, 4-Bromo-2-(4-hydroxyphenyl)-5-phenylpenta-2,4-dienoic acid], the melting point (in general, the temperature, or range, at which the solid turns liquid) lay in the range of 155 to 157 °C. Further, the IC50 (usually the point on the concentration scale where inhibition reaches its midpoint) at soybean lipoxygenase was 69 µM. Moreover, in series [1], the “RA% 50 µM 20 min” value was found to be 34%, the “RA% 50 µM 60 min” value came to 46%, the “RA% 100 µM 20 min” value amounted to 35% and the “RA% 100 µM 60 min” value was found to be 37%. Besides, the “ABTS+•% 100 µM” value in series [2] is recorded as 24%. Moreover, the “HO•% 100 µM” value in series [3] came out at 96%. In series [4], the “RM (±SD)” value was 0.011 (0.001). For the same molecule, the “O2−•% 100 µM” value in series [5] was determined as 100%. Moreover, in series [6], the “AAPH% 50 µM” value came to 59% and the “AAPH% 100 µM” value came out at 97%.

The molecule `CC(=Cc1ccccc1)C=C(C(=O)O)c1ccc(O)cc1` [Compound 5ii, 2-(4-Hydroxyphenyl)-4-methyl-5-phenylpenta-2,4-dienoic acid] registered a melting point of 90 to 91 °C. On soybean lipoxygenase, the IC50 turned out to be 81.5 µM. Moreover, in series [1], the “RA% 50 µM 20 min” value is on record as 32%, the “RA% 50 µM 60 min” value came to 39%, the “RA% 100 µM 20 min” value is on record as 30% and the “RA% 100 µM 60 min” value was 41%. Further, in series [2], the “ABTS+•% 100 µM” value is recorded as 35%. Moreover, the “HO•% 100 µM” value in series [3] came out at 89%. For the same molecule, the “RM (±SD)” value in series [4] is listed as −0.565 (0.003). Also, in series [5], the “O2−•% 100 µM” value turned out to be 8%. In series [6], the “AAPH% 50 µM” value came to 53% and the “AAPH% 100 µM” value came out at 93%.

Consider `CC(C)(C)c1cc(C=C(C(=O)O)c2ccc(Br)cc2)cc(C(C)(C)C)c1O` [Compound 7i, 2-(4-Bromophenyl)-3-(3,5-di-tert-butyl-4-hydroxyphenyl)acrylic acid], for which the melting point fell in the range of 137 to 138 °C. Further, on soybean lipoxygenase, the IC50 came out at 72.5 µM. Moreover, in series [1], the “RA% 50 µM 20 min” value is 34%, the “RA% 50 µM 60 min” value was 35%, the “RA% 100 µM 20 min” value turned out to be 30% and the “RA% 100 µM 60 min” value came out at 31%. The “ABTS+•% 100 µM” value in series [2] is recorded as 28%. In addition, the “HO•% 100 µM” value in series [3] is given as 87%. Further, the “RM (±SD)” value in series [4] was 1.151 (0.021). Also, the “O2−•% 100 µM” value in series [5] was determined as 54%. In addition, in series [6], the “AAPH% 50 µM” value is listed as 61% and the “AAPH% 100 µM” value came to 100%.

`CC(C)(C)c1cc(C=C(C(=O)O)c2ccc(O)cc2)cc(C(C)(C)C)c1O` [Compound 7ii, 3-(3,5-di-tert-Butyl-4-hydroxyphenyl)-2-(4-hydroxyphenyl)acrylic acid]: the melting point was 139 to 140 °C. On soybean lipoxygenase, the IC50 was found to be 57.5 µM. Besides, in series [1], the “RA% 50 µM 20 min” value was determined as 33%, the “RA% 50 µM 60 min” value is 35%, the “RA% 100 µM 20 min” value amounted to 33% and the “RA% 100 µM 60 min” value was 34%. Also, in series [2], the “ABTS+•% 100 µM” value was 34%. Further, the “HO•% 100 µM” value in series [3] stood at 72%. In series [4], the “RM (±SD)” value is reported as 0.654 (0.016). In addition, the “O2−•% 100 µM” value in series [5] came to 69%. Besides, in series [6], the “AAPH% 50 µM” value was 69% and the “AAPH% 100 µM” value is given as 100%.

For the origin of these results see article PMC6337588, “Multi-Target Cinnamic Acids for Oxidative Stress and Inflammation: Design, Synthesis, Biological Evaluation and Modeling Studies” (Molecules, 2018).
